The source made the active and inactive calls. The calls are words filed in the database; no cut-off is given here. Where only a bound is given, the exact number is not on record here.

The source of these data is ChEMBL document CHEMBL6096654, “Allosteric inhibition of PTP1B by bromocatechol-chalcone derivatives” (Eur J Med Chem, 2025).

Data set [1] addresses T1, Tyrosine-protein phosphatase non-receptor type 1 (Homo sapiens) (UniProt P18031).
T1 sequence (whole entry): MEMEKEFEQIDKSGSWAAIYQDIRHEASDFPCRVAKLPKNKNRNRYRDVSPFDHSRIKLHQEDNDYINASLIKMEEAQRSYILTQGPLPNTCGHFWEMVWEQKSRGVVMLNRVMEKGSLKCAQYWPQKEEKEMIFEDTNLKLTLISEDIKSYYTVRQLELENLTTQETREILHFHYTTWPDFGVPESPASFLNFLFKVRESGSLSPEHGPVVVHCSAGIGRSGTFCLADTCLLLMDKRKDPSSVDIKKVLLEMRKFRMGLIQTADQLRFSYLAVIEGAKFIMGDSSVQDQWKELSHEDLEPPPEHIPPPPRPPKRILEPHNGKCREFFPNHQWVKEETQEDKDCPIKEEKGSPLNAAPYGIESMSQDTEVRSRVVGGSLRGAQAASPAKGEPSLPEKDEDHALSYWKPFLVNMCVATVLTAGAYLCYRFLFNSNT
Put plainly: Induction of thermal stabilization of PTP1B in human HepG2 cells at 2.5 u incubated for 6 hrs followed by heat exposure at 51 to 65 degreeC for 4 mins by CETSA. The data set is classed as cell-based.

Data set [2] in a line: Acute toxicity in Kunming mouse assessed as animal mortality at 2000 mg/kg, po measured for 14 days. It counts as organism-based. The conditions noted are these: in vivo, 336 h, time 14 day.
Data set [3] concerns Mus musculus. Kind of data set: Hypoglycemic activity in BKD db/db mouse assessed as increase in AKT phosphorylation in skeletal muscle at 40 to 80 mg/kg/day, po for 8 weeks by Western blot analysis. It counts as functional, organism-based. The conditions noted are these: dose 40-80 mg/kg/day. (In western blotting, separated proteins are transferred to a membrane and probed.)

Data set [4] relates to Mus musculus. Kind of data set: Hypoglycemic activity in BKD db/db mouse assessed as decrease in blood glucose level at 40 to 80 mg/kg/day, po for 7 weeks followed by insulin injection by […] method. It counts as functional, organism-based. To be noted: dose 40-80 mg/kg/day.
Data set [5] relates to Mus musculus. Kind of data set: Hypoglycemic activity in BKD db/db mouse assessed as decrease in serum insulin level at 40 to 80 mg/kg/day, po qd for 7 weeks. The data set is classed as functional, organism-based. The conditions noted are these: dose 40-80 mg/kg/day.
For data set [6], the target named is T2, Tyrosine-protein phosphatase non-receptor type 11 (Homo sapiens, UniProt Q06124).
T2 sequence (Q06124 whole entry): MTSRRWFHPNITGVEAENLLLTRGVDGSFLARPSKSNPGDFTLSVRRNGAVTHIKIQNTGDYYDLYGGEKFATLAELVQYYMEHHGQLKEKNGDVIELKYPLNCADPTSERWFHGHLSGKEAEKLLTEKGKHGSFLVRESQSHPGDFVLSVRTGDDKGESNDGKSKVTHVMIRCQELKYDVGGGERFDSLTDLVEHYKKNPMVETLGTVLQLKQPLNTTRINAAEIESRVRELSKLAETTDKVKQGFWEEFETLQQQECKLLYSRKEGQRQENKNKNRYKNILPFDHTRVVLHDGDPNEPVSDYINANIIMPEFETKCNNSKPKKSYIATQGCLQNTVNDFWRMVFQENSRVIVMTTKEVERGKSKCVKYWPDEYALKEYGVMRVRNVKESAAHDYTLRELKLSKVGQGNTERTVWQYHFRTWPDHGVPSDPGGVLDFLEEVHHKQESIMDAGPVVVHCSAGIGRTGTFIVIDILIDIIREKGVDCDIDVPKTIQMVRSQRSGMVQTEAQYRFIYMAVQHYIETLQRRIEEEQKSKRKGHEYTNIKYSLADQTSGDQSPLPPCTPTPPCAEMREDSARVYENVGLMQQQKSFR
Kind of data set: Inhibition of SHP2 (unknown origin) using pNPP as substrate incubated for 30 mins by spectrophotometry.

Data set [7] is described as follows: Toxicity in BKD db/db mouse assessed as effect on kidney weight at 40 to 80 mg/kg/day, po qd for 8 weeks. The data set is classed as organism-based. To be noted: in vivo, 1344 h, dose 40-80 mg/kg/day.
The subject of a further data set is Hepatocyte. Put plainly: Inhibition of insulin-resistance in insulin-resistant C57BL/J mouse […] primary hepatocytes assessed as increase in insulin receptor phosphorylation pretreated for 24 hrs followed by compound washout and further addition of insulin measured after 20 mins by Western blot analysis. The data set is classed as functional, cell-based. To be noted: dose 0.625-2.5 µM.

Data set [8] concerns Mus musculus. Kind of data set: Hypoglycemic activity in BKD db/db mouse assessed as decrease in blood glucose level at 40 to 80 mg/kg/day, po for 6 weeks by OGTT method. The data set is classed as functional, organism-based. The conditions noted are these: dose 40-80 mg/kg/day.
In data set [9] the test system is C2C12. Kind of data set: Inhibition of insulin-resistance in insulin-resistant mouse C2C12 cells assessed as increase in AKT phosphorylation pretreated for 24 hrs followed by compound washout and further addition of insulin measured after 20 mins by Western blot analysis. The data set is classed as functional, cell-based. To be noted: dose 0.625-2.5 µM.
Data set [10] can be described thus: Toxicity in BKD db/db mouse assessed as effect on epididymal white adipose tissue weight at 40 to 80 mg/kg/day, po qd for 8 weeks. It counts as organism-based. To be noted: in vivo, 1344 h, dose 40-80 mg/kg/day.
Data set [11] has as its target T3, Tyrosine-protein phosphatase non-receptor type 1 (Homo sapiens, UniProt P18031).
T3 sequence (P18031 whole entry): T1 sequence (whole entry)
Kind of data set: Allosteric inhibition of PTP1B (unknown origin) using pNPP as substrate incubated for 30 mins by spectrophotometry.

Data set [12] has as its system C2C12. Kind of data set: Inhibition of insulin-resistance in insulin-resistant mouse C2C12 cells assessed as increase in insulin receptor phosphorylation pretreated for 24 hrs followed by compound washout and further addition of insulin measured after 20 mins by Western blot analysis. It counts as functional, cell-based. To be noted: dose 0.625-2.5 µM.
Data set [13] in a line: Acute toxicity in Kunming mouse assessed as toxic effects at 2000 mg/kg, po measured for 14 days. It counts as organism-based. To be noted: in vivo, 336 h, time 14 day.
Data set [14] can be described thus: Inhibition of PTP1B N193A/K197A mutant (unknown origin) using pNPP as substrate incubated for 30 mins by spectrophotometry. The arrangement: species or system Homo sapiens.
A short description of data set [15]: Acute toxicity in Kunming mouse assessed as behavioural changes at 2000 mg/kg, po measured for 14 days. The data set is classed as organism-based. To be noted: in vivo, 336 h, time 14 day.
Data set [16] relates to Mus musculus. Put plainly: Hypoglycemic activity in BKD db/db mouse assessed as increase in insulin receptor phosphorylation in liver at 40 to 80 mg/kg/day, po for 8 weeks by Western blot analysis. It counts as functional, organism-based. To be noted: dose 40-80 mg/kg/day.
The subject of data set [17] is Mus musculus. Put plainly: Hypoglycemic activity in BKD db/db mouse assessed as increase in AKT phosphorylation in liver at 40 to 80 mg/kg/day, po for 8 weeks by Western blot analysis. The data set is classed as functional, organism-based. To be noted: dose 40-80 mg/kg/day.

A word on the IC50: it is the point on the concentration scale where inhibition reaches its midpoint. Consider `CCOc1ccc(Oc2ccc(C(=O)/C=C/c3cc(O)c(O)c(Br)c3Br)cc2)cc1`, for which the outcome (in data set [1]; in the data set on Mus musculus [3]; with Mus musculus [4]; with Mus musculus [5]; in the data set on Mus musculus [8]; in the data set on Mus musculus [16]) was Active. Moreover, the outcome in the data set on Mus musculus [17] was Active. The Activity entry in [2], in [7], in data set [10], in data set [13] and in data set [15] was “Non-toxic” in each case. In addition, the half-maximal inhibitory concentration (IC50) is > 20 µM in [6], 1.06 µM in [11] and 14.8 µM in [14]. The inhibition result in the data set with Hepatocyte, with C2C12 [9] and in the data set with C2C12 [12] was “Dose-dependent-effect” throughout.
